Drawing on the Kinase Knowledgebase extract (Sharma et al. 2016), this text covers IC50 and inhibition for 54 compounds.

This assay deals with MAPK14 (human) (UniProt Q16539). As to the kind of experiment: Inhibition of MAPK14 Kinase Activity. The note with it: for inhibition: concentration not given here.
Sequence of MAPK14 (human) (Q16539 whole entry, looked up): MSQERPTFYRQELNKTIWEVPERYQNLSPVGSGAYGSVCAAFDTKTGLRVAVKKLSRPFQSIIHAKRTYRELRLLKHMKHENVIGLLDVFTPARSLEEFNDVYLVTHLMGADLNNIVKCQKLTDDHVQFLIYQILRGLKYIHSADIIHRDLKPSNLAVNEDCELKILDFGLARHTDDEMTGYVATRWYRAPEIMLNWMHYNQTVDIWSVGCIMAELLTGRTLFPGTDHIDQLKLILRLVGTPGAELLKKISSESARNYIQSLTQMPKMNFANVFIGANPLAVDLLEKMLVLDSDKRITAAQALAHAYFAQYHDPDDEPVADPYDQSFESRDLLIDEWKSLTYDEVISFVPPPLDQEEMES

With `CCc1ccccc1NC(=O)Nc1sc(C(C)(C)C)cc1C(=O)N1CCN(CCN(C)C)C(=O)C1(C)C`, the IC50 is under 5 µM.

`CC(C)(C)c1cc(C(=O)N2CCNC(=O)C2(C)C)c(NC(=O)Nc2cccc(Cl)c2Cl)[nH]1` returned an IC50 of under 5 µM.

As to `CC(C)(C)c1cc(C(=O)N2CCNC(=O)C2(C)CC(N)=O)c(NC(=O)Nc2ccc(F)c(Cl)c2Cl)s1` (centres undefined), the IC50 is under 5 µM.

The compound `CN(C)CCCNC(=O)CN1CCN(C(=O)c2cc(C(C)(C)C)sc2NC(=O)Nc2cccc(Cl)c2Cl)C(C)(C)C1=O` displayed an IC50 of under 5 µM.

Turning to `CC(C)(C)c1cc(C(=O)N2CCNC(=O)C2(C)C)c(NC(=O)Nc2ccc3c(c2)OCO3)s1`, the IC50 is under 5 µM.

As for `CC(C)(C)c1cc(C(=O)N2CCC(=O)N(CCc3nnn[nH]3)CC2)c(NC(=O)Nc2cccc(Cl)c2Cl)s1`, the 50% inhibitory concentration (IC50) is under 5 µM.

Turning to `CC(C)(C)c1cc(C(=O)N2CCNC(=O)C2(C)C)c(NC(=O)Nc2ccc(C#N)c3ccccc23)s1`, the IC50 is under 5 µM.

For the compound `CN(C)CCNC(=O)CN1CCN(C(=O)c2cc(C(C)(C)C)sc2NC(=O)Nc2ccc(F)c(F)c2Cl)CCC1=O`, the 50% inhibitory concentration (IC50) was under 5 µM.

Turning to `CC(C)(C)c1cc(C(=O)N2CCN(CC(=O)NCC3CC3)C(=O)C2(C)C)c(NC(=O)Nc2cccc(Cl)c2Cl)s1`, the IC50 is under 5 µM.

The compound `CC(C)(C)c1cc(C(=O)N2CCNC(=O)C2(C)C)c(NC(=O)Nc2ccncc2Cl)s1` showed an IC50 of under 5 µM.

The compound `COc1ccc(CCC(=O)N2CCN(C(=O)c3cc(C(C)(C)C)sc3NC(=O)Nc3cccc(Cl)c3Cl)CC2)cc1` showed an IC50 of under 5 µM.

`CC(C)(C)c1cc(NC(=O)Nc2cccc(Cl)c2Cl)c(C(=O)N2CCNC(=O)C2(C)C)s1` displayed an IC50 of under 5 µM.

The compound `CC(=O)NC1CCCN(C(=O)c2cc(C(C)(C)C)sc2NC(=O)Nc2cccc(Cl)c2Cl)C1` (centres undefined) showed a half-inhibitory concentration (IC50) of under 5 µM.

In the case of `CCC1(C)C(=O)N(CC(=O)OC)CCN1C(=O)c1cc(C(C)(C)C)sc1NC(=O)Nc1cccc(Cl)c1Cl` (centres undefined), the IC50 is under 5 µM.

In turn, `Cc1cccc(NC(=O)Nc2sc(C(C)(C)C)cc2C(=O)N2CCNS(=O)(=O)CC2)c1` returned an inhibition of 76 to 100%.

`CCC1(C)C(=O)N(CCN(C)C)CCN1C(=O)c1cc(C(C)(C)C)sc1NC(=O)Nc1ccc(F)c(Cl)c1Cl` (centres undefined) came in with an IC50 of under 5 µM.

`CCC1(C)C(=O)N(CCN(C)C)CCN1C(=O)c1cc(C(C)(C)C)sc1NC(=O)Nc1ccc(F)cc1` (centres undefined): the IC50 is under 5 µM.

`O=C(Nc1cc(C(F)(F)F)c(Cl)cc1C(=O)N1CCS(=O)(=O)CC1)Nc1cccc(Cl)c1Cl` gave an IC50 of under 5 µM.

In turn, `CCOC(=O)CN1CCN(C(=O)c2cc(NC(=O)Nc3ccc(F)c(Cl)c3Cl)c(C(C)(C)C)s2)C(C)(CC(=O)OC)C1=O` (centres undefined) registered an IC50 of under 5 µM.

For `CC(C)(C)c1cc(C(=O)N2CCNS(=O)(=O)CC2)c(NC(=O)Nc2ccc(F)c(Cl)c2Cl)s1`, the IC50 was under 5 µM.

For the compound `CC(C)(C)OC(=O)N1CCN(C(=O)c2cc(C(C)(C)C)sc2NC(=O)Nc2cccc(Cl)c2Cl)CC1(C)C`, the IC50 is under 5 µM.

With `COC(=O)c1ccc(NC(=O)Nc2sc(C(C)(C)C)cc2C(=O)N2CCNC(=O)CC2)c(Cl)c1Cl`, the IC50 was under 5 µM.

Compound `CC(C)(C)c1cc(C(=O)N2CCNC(=O)CC2)c(NC(=O)Nc2ccc(Cl)cc2Cl)s1` showed an IC50 of under 5 µM.

For the compound `CC(C)(C)c1cc(C(=O)N2CCNC(=O)CC2)c(NC(=O)Nc2ccccc2Br)s1`, the concentration for half-maximal inhibition (IC50) was under 5 µM.

The compound `CC(C)(C)c1cc(C(=O)N2CCNC(=O)C2(C)C)c(NC(=O)Nc2c(Cl)cncc2Cl)s1` yielded an IC50 of under 5 µM.

`CCC1(C)C(=O)N(CC(=O)N2CCN(C)CC2)CCN1C(=O)c1cc(C(C)(C)C)sc1NC(=O)Nc1cccc(Cl)c1Cl` (centres undefined) showed an IC50 of under 5 µM.

Compound `Cn1c(C(C)(C)C)cc(NC(=O)Nc2cccc(Cl)c2Cl)c1C(=O)N1CCNC(=O)C1(C)C` showed an IC50 of under 5 µM.

Take `CC(C)(C)c1cc(C(=O)N2CCNC(=O)C2(C)C)c(NC(=O)Nc2ccc(F)cc2Cl)s1`: the concentration for half-maximal inhibition (IC50) is under 5 µM.

`CN(C)CCN1CCN(C(=O)c2cc(C(C)(C)C)sc2NC(=O)Nc2c(Cl)cncc2Cl)CCC1=O`: the IC50 was under 5 µM.

Compound `CON(C)C(=O)CC1(C)C(=O)NCCN1C(=O)c1cc(C(C)(C)C)sc1NC(=O)Nc1ccc(F)c(Cl)c1Cl` (centres undefined) returned an IC50 of under 5 µM.

Take `CN(C)CCN1CCN(C(=O)c2[nH]c(C(C)(C)C)cc2NC(=O)Nc2cccc(Cl)c2Cl)C(C)(C)C1=O`: the IC50 is under 5 µM.

Take `CN(C)CCN1CCN(C(=O)c2cc(C(C)(C)C)sc2NC(=O)Nc2ccccc2C(C)(C)C)CCC1=O`: the IC50 was under 5 µM.

As for `COc1c(Cl)cccc1NC(=O)Nc1sc(C(C)(C)C)cc1C(=O)N1CCNC(=O)C1(C)CCO` (centres undefined), the IC50 is under 5 µM.

In the case of `CC(C)(C)c1cc(C(=O)N2CCNC(=O)CC2)c(NC(=O)Nc2ccc(F)cc2Cl)s1`, the half-maximal inhibitory concentration (IC50) was under 5 µM.

`COc1ccc(CC(=O)N2CCN(C(=O)c3cc(C(C)(C)C)sc3NC(=O)Nc3cccc(Cl)c3Cl)CC2)cc1`: the IC50 is under 5 µM.

For the compound `C[C@@H]1C(=O)NCCN1C(=O)c1cc(C(C)(C)C)sc1NC(=O)Nc1cccc(Cl)c1Cl`, the IC50 was under 5 µM.

In the case of `CC(C)(C)c1cc(C(=O)NCC(F)(F)F)c(NC(=O)Nc2cccc(Cl)c2Cl)s1`, the half-maximal inhibitory concentration (IC50) was under 5 µM.

The compound `COCOCCN1CCN(C(=O)c2cc(C(C)(C)C)sc2NC(=O)Nc2cccc(Cl)c2Cl)CCC1=O` yielded an inhibition of 76 to 100%.

For the compound `CC(C)(C)c1cc(C(=O)N2CCNC(=O)C2(C)CCO)c(NC(=O)Nc2cccc(Cl)c2Cl)s1` (centres undefined), the half-maximal inhibitory concentration (IC50) is under 5 µM.

For the compound `CC1(C)OCC(CN2CCN(C(=O)c3nc(C(C)(C)C)sc3NC(=O)Nc3cccc(Cl)c3Cl)CCC2=O)O1` (centres undefined), the IC50 is under 5 µM.

Consider `CC(C)(C)c1cc(C(=O)N2CCS(=O)(=O)CC2)c(NC(=O)Nc2cccc3c2OCO3)s1`, for which the IC50 was under 5 µM.

`CC(C)(C)c1nc(C(=O)N2CCC(=O)N(CCC(N)=O)CC2)c(NC(=O)Nc2cccc(Cl)c2Cl)s1` displayed an IC50 of under 5 µM.

Compound `CNC(=O)[C@@H]1CCCN1C(=O)c1cc(C(C)(C)C)sc1NC(=O)Nc1ccc(OC(F)F)c(Cl)c1Cl` registered an IC50 of under 5 µM.

Take `CN(C)CCN1CCN(C(=O)c2cc(C(C)(C)C)sc2NC(=O)Nc2cccnc2Cl)CCC1=O`: the IC50 is under 5 µM.

In turn, `CC(C)c1ccccc1NC(=O)Nc1sc(C(C)(C)C)cc1C(=O)N1CCNC(=O)CC1` returned an IC50 of under 5 µM.

Take `COC(=O)CC1(C)C(=O)NCCN1C(=O)c1cc(C(C)(C)C)[nH]c1NC(=O)Nc1cccc(Cl)c1Cl` (centres undefined): the 50% inhibitory concentration (IC50) is under 5 µM.

In the case of `CC(C)(C)c1cc(C(=O)N2CCNC(=O)C2(C)C)c(NC(=O)Nc2cccc3c2OCO3)s1`, the IC50 is under 5 µM.

As to `CC(C)(C)c1cc(NC(=O)Nc2ccc(Cl)c(Cl)c2)c(C(=O)N2CCNC(=O)CC2)s1`, the inhibition is 76 to 100%.

Compound `COc1ccccc1NC(=O)Nc1sc(C(C)(C)C)cc1C(=O)N1CCC(=O)N(CCN(C)C)CC1` registered an IC50 of under 5 µM.

`CC(C)(C)c1cc(C(=O)N2CCNC(=O)CC2)c(NC(=O)Nc2cccc(Cl)c2Cl)[nH]1` yielded a concentration for half-maximal inhibition (IC50) of under 5 µM.

Consider `CC(C)(C)c1cc(C(=O)N2CCN(CC(=O)O)C(=O)C2(C)C)c(NC(=O)Nc2cccc(Cl)c2Cl)s1`, for which the IC50 is under 5 µM.

Compound `CC(C)(C)c1cc(C(=O)N2CC(=O)NC(CO)C2)c(NC(=O)Nc2cccc(Cl)c2Cl)s1` (centres undefined) returned an IC50 of under 5 µM.

In turn, `CON(C)C(=O)CN1CCN(C(=O)c2cc(C(C)(C)C)sc2NC(=O)Nc2ccc(F)c(F)c2Cl)CCC1=O` registered an IC50 of under 5 µM.

In turn, `CC(C)(C)c1cc(C(=O)N2CCNS(=O)(=O)CC2)c(NC(=O)Nc2cc(Cl)cc(Cl)c2)s1` had an inhibition of 76 to 100%.
